Measured values reported in US11547686B2 (priority 2017, dated 2023).
≈ marks a conversion by molar mass, not a printed value. Where two headings read alike, the source gives them in different places. Marks after values point to notes of the source that are not given here.

Columns and labels:
[1] = system: red blood cells (mouse whole unclotted blood); test: In vitro hemolysis test, mouse blood; conditions: 15 min at 37° C.
[2] = system: red blood cells (human whole unclotted blood); test: In vitro hemolysis test, human blood; conditions: 15 min at 37° C.
[3] = system: red blood cells (dog whole unclotted blood); test: In vitro hemolysis test, dog blood; conditions: 15 min at 37° C.
[4] = Solubility of pregabalin and acetaminophen in water at different pH values (HPLC-UV); conditions: for solubility: thermodynamic from solid
Method: The pH was then adjusted to the required range. The concentration of the active ingredients was determined by HPLC-UV.

[5] = in vivo; conditions: for AUC(0-inf) / Cmax: rat, in vivo, iv
Method: The active ingredients were dissolved in 0.9% saline (20 mL) to achieve the desired concentration. The saline and vial constituents were mixed with by gentle swirling until a clear solution was obtained. The obtained clear solution was filtered through a sterile 0.45 μm PVDF membrane syringe filter and then used for further studies.
(§1) Blood samples were collected over a 24 h period, at which time the rats were exsanguinated, and the blood was collected for clinical pathology evaluation (chemistry, hematology, and coagulation). Finally, all the animals were necropsied (all exterior and interior cavities and organs were examined), and the site of infusion in the jugular vein, lung, liver, and kidney underwent histopathologic evaluation.

[6] = system: red blood cells (rat whole unclotted blood); test: In vitro hemolysis test, rat blood; conditions: 15 min at 37° C.
[7] = system: somatic pain in a rat model; test: Hot plate test (somatic pain); assay type: in vivo, Sprague-Dawley rats; conditions: rats; morphine 3 mg/kg s.c.; combination 50 mg/kg APAP; 40 mg/kg pregabalin IV infusion
Method: Hot Plate Test: The hot plate test is a test that can be used to assess pain sensitivity in rodents. […] In the test, an animal is placed in a confined cylindrical space to restrict locomotion. The floor surface of the space is maintained at a temperature sufficiently hot to elicit an aversive response, but not so hot that tissue damage is induced, typically 50-56° C. The animal is monitored, and latency to paw licking or jumping is recorded. This test can be used to screen novel drugs or drug combinations for effects on pain detection threshold; substances with an analgesic effect can increase latency to licking/jumping, while substances with a hyperalgesic effect can decrease latency.
The effect on somatic pain was tested in groups of 8 Male Sprague-Dawley rats.
Vehicle and test agents were administered by intravenous infusion (IV-CI) over 15 minutes starting 30 minutes before Time 0 (15 minutes post infusion). Morphine was used as a positive control, and was administered (3 mg/kg) by subcutaneous administration 60 minutes before Time 0. […] The pain threshold of the rats was assessed based on the time (seconds) required to elicit a paw withdrawal response (latency).
The data were analyzed by a one-way ANOVA followed by Dunnett's test for comparison between vehicle control and test article/positive control groups.

[8] = rats, 15 min IV infusion
Method: as §1

[9] = Necropsy and histopathologic evaluation after intravenous infusion in rats; conditions: n = 6 per group
Method: as §1

CC(=O)Nc1ccc(O)cc1 [Acetaminophen, N-(4-hydroxyphenyl)acetamide]
% Hemolysis ([1]; APAP 5 mg/mL): 5% | % Hemolysis ([1]; APAP 7.5 mg/mL): 5% | % Hemolysis ([1]; APAP 10 mg/mL): 4% | % Hemolysis ([2]; APAP 5 mg/mL): 2% | % Hemolysis ([2]; APAP 7.5 mg/mL): 0% | % Hemolysis ([2]; APAP 10 mg/mL): 6% | % Hemolysis ([3]; APAP 5 mg/mL): 0% | % Hemolysis ([3]; APAP 7.5 mg/mL): 0% | % Hemolysis ([3]; APAP 10 mg/mL): 0% | solubility ([4]; pH 4, aqueous buffer, Solubility of acetaminophen, water, pH 4, co-dissolved with pregabalin): ~21 mg/mL (≈ 139 mM) | solubility ([4]; pH 5, aqueous buffer, Solubility of acetaminophen, water, pH 5, co-dissolved with pregabalin): 18.7 mg/mL (≈ 124 mM) | solubility ([4]; pH 6, aqueous buffer, Solubility of acetaminophen, water, pH 6, co-dissolved with pregabalin): 17.9 mg/mL (≈ 118 mM) | solubility ([4]; pH 7, aqueous buffer, Solubility of acetaminophen, water, pH 7, co-dissolved with pregabalin): 17.9 mg/mL (≈ 118 mM) | Difference in the solubility of acetaminophen ([4]; pH range from 4-7, acetaminophen alone): no significant difference | Solubility of acetaminophen ([4]; water, pH 4, co-dissolved with pregabalin): 20.8 mg/mL | AUC(0-inf) ([5]; 17 mg/kg, AUC0-∞ of acetaminophen): 11500 ng·h/mL | Cmax ([5]; 17 mg/kg, Cmax of acetaminophen): 18600 ng/mL | AUC(0-inf) ([5]; 17 mg/kg, Equivalence (80%-125%) range of acetaminophen AUC0-∞): 9190 to 14400 ng·h/mL | Cmax ([5]; 17 mg/kg, Equivalence (80%-125%) range of acetaminophen Cmax): 14900 to 23300 ng/mL | Effect of the presence or absence of pregabalin on the pharmacokinetics of acetaminophen ([5]; rats, 15 min IV infusion): did not affect | % Hemolysis ([6]; APAP 5 mg/mL): 6% | % Hemolysis ([6]; APAP 7.5 mg/mL): 0% | % Hemolysis ([6]; APAP 10 mg/mL): 2%

CN1CC[C@]23c4c5ccc(O)c4O[C@H]2[C@@H](O)C=C[C@H]3[C@H]1C5 [morphine]
Onset of the analgesic effect [7]: near immediate

CC(C)C[C@H](CN)CC(=O)O [Pregabalin, (3S)-3-(Aminomethyl)-5-methylhexanoic acid]
% Hemolysis ([1]; PGB 0.75 mg/mL): 0% | % Hemolysis ([1]; PGB 1.5 mg/mL): 4% | % Hemolysis ([1]; PGB 3 mg/mL): 0% | ALBGLOB (albumin/globulin ratio, calculated) ([8]; PGB 1.25 mg/kg): 1.4 | ALP (alkaline phosphatase) ([8]; PGB 1.25 mg/kg): 99 U/L | ALT (alanine aminotransferase) ([8]; PGB 1.25 mg/kg): 45 U/L | APPT (Activated partial thromboplastin time) ([8]; PGB 1.25 mg/kg): 12.9 s | AST (aspartate aminotransferase) ([8]; PGB 1.25 mg/kg): 93 ** U/L | Albumin ([8]; PGB 1.25 mg/kg): 4.0 g/dL | Basophils ([8]; PGB 1.25 mg/kg): 80 µL⁻¹ | Bilirubin ([8]; PGB 1.25 mg/kg): 0.02 mg/dL | Calcium ([8]; PGB 1.25 mg/kg): 11.4 mg/dL | Chloride ([8]; PGB 1.25 mg/kg): 102 mEq/L | Cholesterol ([8]; PGB 1.25 mg/kg): 94 mg/dL | Creatinine ([8]; PGB 1.25 mg/kg): 0.47 mg/dL | Eosinophils ([8]; PGB 1.25 mg/kg): 280 µL⁻¹ | GLOBUL (globulin, calculated) ([8]; PGB 1.25 mg/kg): 2.8 g/dL | Glucose ([8]; PGB 1.25 mg/kg): 166 mg/dL | Hematocrit ([8]; PGB 1.25 mg/kg): 44.2% | Hemoglobin ([8]; PGB 1.25 mg/kg): 14.2 g/dL | LGLUCLE (large unstained cell) ([8]; PGB 1.25 mg/kg): 100 µL⁻¹ | Lymphocytes ([8]; PGB 1.25 mg/kg): 9400 µL⁻¹ | MCH (mean cell hemoglobin) ([8]; PGB 1.25 mg/kg): 17.8 pg | MCHC (mean cell hemoglobin concentration) ([8]; PGB 1.25 mg/kg): 32 g/dL | MCV (mean cell volume) ([8]; PGB 1.25 mg/kg): 55.8 fL | Monocytes ([8]; PGB 1.25 mg/kg): 500 µL⁻¹ | Neutrophils ([8]; PGB 1.25 mg/kg): 1400 µL⁻¹ | PHOS (inorganic phosphorus) ([8]; PGB 1.25 mg/kg): 10.6 mg/dL | Platelets ([8]; PGB 1.25 mg/kg): 908000 µL⁻¹ | Potassium ([8]; PGB 1.25 mg/kg): 7.3 mEq/L | Protein ([8]; PGB 1.25 mg/kg): 6.7 g/dL | Prothrombin time ([8]; PGB 1.25 mg/kg): 16.8 s | RBC ([8]; PGB 1.25 mg/kg): 7.93e+06 µL⁻¹ | Reticulocytes ([8]; PGB 1.25 mg/kg): 4.11 * % | Sodium ([8]; PGB 1.25 mg/kg): 148 * mEq/L | Triglycerides ([8]; PGB 1.25 mg/kg): 33 mg/dL | UREAN (blood urea nitrogen) ([8]; PGB 1.25 mg/kg): 19 mg/dL | WBC ([8]; PGB 1.25 mg/kg): 11740 µL⁻¹ | ALBGLOB (albumin/globulin ratio, calculated) ([8]; PGB 5 mg/kg): 1.4 | ALP (alkaline phosphatase) ([8]; PGB 5 mg/kg): 97 U/L | ALT (alanine aminotransferase) ([8]; PGB 5 mg/kg): 51 U/L | APPT (Activated partial thromboplastin time) ([8]; PGB 5 mg/kg): 12.4 s | AST (aspartate aminotransferase) ([8]; PGB 5 mg/kg): 107 U/L | Albumin ([8]; PGB 5 mg/kg): 3.9 g/dL | Basophils ([8]; PGB 5 mg/kg): 80 µL⁻¹ | Bilirubin ([8]; PGB 5 mg/kg): 0.02 mg/dL | Calcium ([8]; PGB 5 mg/kg): 11.5 mg/dL | Chloride ([8]; PGB 5 mg/kg): 101 mEq/L | Cholesterol ([8]; PGB 5 mg/kg): 93 mg/dL | Creatinine ([8]; PGB 5 mg/kg): 0.44 mg/dL | Eosinophils ([8]; PGB 5 mg/kg): 350 µL⁻¹ | GLOBUL (globulin, calculated) ([8]; PGB 5 mg/kg): 2.8 g/dL | Glucose ([8]; PGB 5 mg/kg): 150 mg/dL | Hematocrit ([8]; PGB 5 mg/kg): 45.1% | Hemoglobin ([8]; PGB 5 mg/kg): 14.4 g/dL | LGLUCLE (large unstained cell) ([8]; PGB 5 mg/kg): 80 µL⁻¹ | Lymphocytes ([8]; PGB 5 mg/kg): 10810 µL⁻¹ | MCH (mean cell hemoglobin) ([8]; PGB 5 mg/kg): 18.3 pg | MCHC (mean cell hemoglobin concentration) ([8]; PGB 5 mg/kg): 32.1 g/dL | MCV (mean cell volume) ([8]; PGB 5 mg/kg): 57.1 fL | Monocytes ([8]; PGB 5 mg/kg): 450 µL⁻¹ | Neutrophils ([8]; PGB 5 mg/kg): 1520 µL⁻¹ | PHOS (inorganic phosphorus) ([8]; PGB 5 mg/kg): 10 ** mg/dL | Platelets ([8]; PGB 5 mg/kg): 933000 µL⁻¹ | Potassium ([8]; PGB 5 mg/kg): 6.9 * mEq/L | Protein ([8]; PGB 5 mg/kg): 6.7 g/dL | Prothrombin time ([8]; PGB 5 mg/kg): 16.6 s | RBC ([8]; PGB 5 mg/kg): 7.9e+06 µL⁻¹ | Reticulocytes ([8]; PGB 5 mg/kg): 4.7% | Sodium ([8]; PGB 5 mg/kg): 147 mEq/L | Triglycerides ([8]; PGB 5 mg/kg): 30 mg/dL | UREAN (blood urea nitrogen) ([8]; PGB 5 mg/kg): 19 mg/dL | WBC ([8]; PGB 5 mg/kg): 13280 µL⁻¹ | % Hemolysis ([2]; PGB 0.75 mg/mL): 0% | % Hemolysis ([2]; PGB 1.5 mg/mL): 7% | % Hemolysis ([2]; PGB 3 mg/mL): 1% | % Hemolysis ([3]; PGB 0.75 mg/mL): 0% | % Hemolysis ([3]; PGB 1.5 mg/mL): 0% | % Hemolysis ([3]; PGB 3 mg/mL): 1% | Necropsy Observation: Lung Discolored ([9]; PGB 1.25 mg/kg): 1 | Necropsy Observation: Lung Focus ([9]; PGB 1.25 mg/kg): 1 | Necropsy Observation: Lung Discolored ([9]; PGB 5 mg/kg): 0 | Necropsy Observation: Lung Focus ([9]; PGB 5 mg/kg): 2 | solubility ([4]; aqueous buffer, Solubility of pregabalin, water, pH range of 5-7, pregabalin alone): ~31 mg/mL (≈ 195 mM) | solubility ([4]; pH 4, aqueous buffer, Solubility of pregabalin, water, pH 4, co-dissolved with acetaminophen): 54.4 mg/mL (≈ 342 mM) | solubility ([4]; pH 4, aqueous buffer, Solubility of pregabalin, water, room temperature, pH 4, pregabalin alone): 54.4 mg/mL (≈ 342 mM) | solubility ([4]; pH 5, aqueous buffer, Solubility of pregabalin, water, pH 5, co-dissolved with acetaminophen): 36.8 mg/mL (≈ 231 mM) | solubility ([4]; pH 5, aqueous buffer, Solubility of pregabalin, water, room temperature, pH 5, pregabalin alone): 32.4 mg/mL (≈ 203 mM) | solubility ([4]; pH 6, aqueous buffer, Solubility of pregabalin, water, pH 6, co-dissolved with acetaminophen): 35 mg/mL (≈ 220 mM) | solubility ([4]; pH 6, aqueous buffer, Solubility of pregabalin, water, room temperature, pH 6, pregabalin alone): 31 mg/mL (≈ 195 mM) | solubility ([4]; pH 7, aqueous buffer, Solubility of pregabalin, water, pH 7, co-dissolved with acetaminophen): 35 mg/mL (≈ 220 mM) | solubility ([4]; pH 7, aqueous buffer, Solubility of pregabalin, water, room temperature, pH 7, pregabalin alone): 30.6 mg/mL (≈ 192 mM) | Change in the solubility of pregabalin in the presence of acetaminophen ([4]; pH range of 5-7, versus pregabalin alone): increase | AUC(0-inf) ([5]; 1.25 mg/kg, AUC0-∞ of pregabalin, rats, 15 min IV infusion, Pregabalin 1.25 mg/kg): 6750 ng·h/mL | Cmax ([5]; 1.25 mg/kg, Cmax of pregabalin, rats, 15 min IV infusion, Pregabalin 1.25 mg/kg): 2060 ng/mL | AUC(0-inf) ([5]; 1.25 mg/kg, Equivalence (80%-125%) range of pregabalin AUC0-∞, rats, Pregabalin 1.25 mg/kg alone as reference): 5400 to 8440 ng·h/mL | Cmax ([5]; 1.25 mg/kg, Equivalence (80%-125%) range of pregabalin Cmax, rats, Pregabalin 1.25 mg/kg alone as reference): 1650 to 2580 ng/mL | AUC(0-inf) ([5]; 5 mg/kg, AUC0-∞ of pregabalin, rats, 15 min IV infusion, Pregabalin 5 mg/kg): 26100 ng·h/mL | Cmax ([5]; 5 mg/kg, Cmax of pregabalin, rats, 15 min IV infusion, Pregabalin 5 mg/kg): 7910 ng/mL | AUC(0-inf) ([5]; 5 mg/kg, Equivalence (80%-125%) range of pregabalin AUC0-∞, rats, Pregabalin 5 mg/kg alone as reference): 20900 to 32700 ng·h/mL | Cmax ([5]; 5 mg/kg, Equivalence (80%-125%) range of pregabalin Cmax, rats, Pregabalin 5 mg/kg alone as reference): 6330 to 9880 ng/mL | Change in the pharmacokinetic profile of pregabalin in the presence or absence of acetaminophen ([5]; rats, 15 min IV infusion): No change | % Hemolysis ([6]; PGB 0.75 mg/mL): 2% | % Hemolysis ([6]; PGB 1.5 mg/mL): 0% | % Hemolysis ([6]; PGB 3 mg/mL): 2%
